Earlier results, collected in publication PMC6311893, “Computational prediction of plasma protein binding of cyclic peptides from small molecule experimental data using sparse modeling techniques” (BMC Bioinformatics, 2018).
Read-outs that look alike come from different tables or passages of the source.

Test system: plasma protein
Conditions: cited from earlier work
[1] = fraction bound to plasma protein, small molecule dataset, sheet 1-SM, Set Dtr, ref Ingle et al.
[2] = fraction bound to plasma protein, small molecule dataset, sheet 1-SM (Set Dte = test, Dtr = training), ref Ingle et al.
[3] = fraction bound to plasma protein, small molecule dataset, sheet 1-SM, ref Ingle et al.

| Compound | PPB (fb) [2] | PPB (fb) [3] | further results |
| --- | --- | --- | --- |
| CCC1(O)CN2CCC1CC2C(O)c1ccnc2ccc(OC)cc12 (stereo not drawn) [Hydroxydihydroquinidine] |  |  | PPB (fb) (plasma): 0.53 |
| C[C@]12CC[C@@H]3c4ccc(O)cc4CC[C@H]3[C@@H]1CC[C@@H]2O [Estradiol] |  |  | PPB (fb) [1]: 0.984 |
| O=C(O[C@@H]1C[C@@H]2C[C@H]3C[C@H](C1)N2CC3=O)c1c[nH]c2ccccc12 [dolasetron] | 0.7 |  |  |
| CCOc1nc2cccc(C(=O)O)c2n1Cc1ccc(-c2ccccc2-c2nnn[nH]2)cc1 [candesartan] | 0.99 |  |  |
| O=[N+]([O-])OCC(CO[N+](=O)[O-])O[N+](=O)[O-] [nitroglycerin] |  |  | PPB (fb) (plasma): 0.6 |
| CCN(CC)CCNC(=O)c1ccc(N)cc1 [Procainamide] |  |  | PPB (fb) [1]: 0.16 |
| CC1(C)S[C@@H]2[C@H](NC(=O)Cc3ccccc3)C(=O)N2[C@H]1C(=O)O [Penicillin G] |  |  | PPB (fb) [1]: 0.62 |
| CC[C@@H]1C(=O)OC[C@@H]1Cc1cncn1C [Pilocarpine] |  | 0.01 |  |
| CCN(CCO)CCCC(C)Nc1ccnc2cc(Cl)ccc12 (stereo not drawn) [Hydroxychloroquine] |  |  | PPB (fb) [1]: 0.46 |
| CCCCN1CCCCC1C(=O)Nc1c(C)cccc1C (stereo not drawn) [Bupivacaine] |  |  | PPB (fb) [1]: 0.95 |
| CC(C)Cc1ccc(C(C)C(=O)NCCOCCO)cc1 (stereo not drawn) [JMC_08] |  | 0.83 |  |
| COCC1=C(C(=O)OC(C)OC(=O)OC(C)C)N2C(=O)[C@@H](NC(=O)/C(=N\OC)c3csc(N)n3)[C@H]2SC1 (stereo partly drawn) [cefpodoxime proxetil] | 0.29 |  |  |
| CCCCC1C(=O)N(c2ccccc2)N(c2ccc(O)cc2)C1=O (stereo not drawn) [oxyphenbutazone] |  | 0.99 |  |
| O=c1[nH]c2ccccc2n1C1CCN(CCCC(c2ccc(F)cc2)c2ccc(F)cc2)CC1 [pimozide] | 0.95 |  |  |
| CCOC(=O)[C@H](CCc1ccccc1)N[C@@H](C)C(=O)N1[C@H](C(=O)O)C[C@@H]2CCC[C@@H]21 [ramipril] |  |  | PPB (fb) (plasma): 0.61 |
| Cc1cccc(C)c1OCC(C)N (stereo not drawn) [Mexiletine] |  |  | PPB (fb) [1]: 0.63 |
| O=C1CN(/N=C/c2ccc(-c3ccc([N+](=O)[O-])cc3)o2)C(O)=N1 [dantrolene] | 0.89 |  |  |
| CCCN1CCN(c2cc3c(cc2F)c(=O)c(C(=O)O)cn3-c2ccc(OC)cc2)CC1 [5cc (p-OCH3__ N- C3H7] | 0.54 |  |  |
| O=C(O)P(=O)(O)O [Foscarnet] |  |  | PPB (fb) [1]: 0.15 |
| C=C(CC)C(=O)c1ccc(OCC(=O)O)c(Cl)c1Cl [ethacrynic acid] |  | 0.9 |  |
| O=C(N[C@H](CO)[C@H](O)c1ccc([N+](=O)[O-])cc1)C(Cl)Cl [Chloramphenicol] |  |  | PPB (fb) [1]: 0.61 |
| CC(=O)c1ccc(S(=O)(=O)NC(=O)NC2CCCCC2)cc1 [acetohexamide] | 0.96 |  |  |
| CCCCCCCC(=O)NC1C(=O)N2C1SC(C)(C)C2C(=O)O (stereo not drawn) [penicillin3] |  |  | PPB (fb) (plasma): 0.92 |
| Cc1[nH]cnc1CN1CCc2c(c3ccccc3n2C)C1=O [Alosetron] |  |  | PPB (fb) [1]: 0.72 |
| C#CC1(O)CC[C@H]2[C@@H]3CCC4=CC(=O)CC[C@@H]4[C@H]3CC[C@@]21CC (stereo partly drawn) [norgestrel] | 0.97 |  |  |

| Compound | PPB (fb) [2] | PPB (fb) [3] | further results |
| --- | --- | --- | --- |
| C[C@H](N[C@@H](CCc1ccccc1)C(=O)O)C(=O)N1Cc2ccccc2C[C@H]1C(=O)O [Quinaprilat] | 0.68 |  |  |
| COC(C(=O)NC1C(=O)N2C1SC(C)(C)C2C(=O)O)c1cc(Cl)c(Cl)c(Cl)c1 (stereo not drawn) [penicillin43] |  | 0.96 |  |
| CNCCC=C1c2ccccc2CCc2ccccc21 [Nortriptyline] |  |  | PPB (fb) [1]: 0.91 |
| CC[C@@]1(O)C(=O)OCc2c1cc1n(c2=O)Cc2cc3ccccc3nc2-1 [Camptothecin] | 0.98 |  |  |
| CCCC(N)C(=O)NC1C(=O)N2C1SC(C)(C)C2C(=O)O (stereo not drawn) [penicillin12] |  | 0.33 |  |
| COc1cccc2c1C(=O)c1c(O)c3c(c(O)c1C2=O)C[C@@](O)(C(=O)CO)C[C@@H]3O[C@H]1C[C@H](N)[C@H](O)[C@H](C)O1 [Doxorubicin] |  |  | PPB (fb) [1]: 0.73 |
| Nc1ncn([C@H]2C[C@H](O)[C@@H](CO)O2)c(=O)n1 [Decitabine] | 0 |  |  |
| CN1CCOC(c2ccccc2)c2ccccc2C1 (stereo not drawn) [nefopam] |  | 0.73 |  |
| COCCOc1cnc(NS(=O)(=O)c2ccccc2)nc1 [glymidine] |  | 0.8 |  |
| O=C(c1ccc(F)cc1)C1CCN(CCn2c(=O)[nH]c3ccccc3c2=O)CC1 [Ketanserin] |  |  | PPB (fb) [1]: 0.95 |
| CCS(=O)(=O)CCn1c([N+](=O)[O-])cnc1C [Tinidazole] |  | 0.15 |  |
| CC(=O)O[C@@]12CO[C@@H]1C[C@H](O)[C@@]1(C)C(=O)[C@H](O)C3=C(C)[C@@H](OC(=O)[C@H](O)[C@@H](NC(=O)OC(C)(C)C)c4ccccc4)C[C@@](O)([C@@H](OC(=O)c4ccccc4)[C@H]21)C3(C)C [Docetaxel] | 0.96 |  |  |
| CC1(C)SC2C(NC(=O)C(Cl)c3cccc(Cl)c3)C(=O)N2C1C(=O)O (stereo not drawn) [penicillin23] | 0.94 |  |  |
| CCCCC[C@H](O)/C=C/[C@H]1[C@H](O)CC(=O)[C@@H]1CCCCCCC(=O)O [alprostadil] | 0.92 |  |  |
| CN(C)CC(c1ccc(O)cc1)C1(O)CCCCC1 (stereo not drawn) [O-desmethylvenlafaxine] |  | 0.3 |  |
| COc1ccc(C(N)C(=O)NC2C(=O)N3C2SC(C)(C)C3C(=O)O)cc1 (stereo not drawn) [penicillin34] |  | 0.38 |  |
| COc1c(N2CCNC(C)C2)c(F)cc2c(=O)c(C(=O)O)cn(C3CC3)c12 (stereo not drawn) [Gatifloxacin] |  |  | PPB (fb) [1]: 0.2 |
| Nc1ccc(C(=O)O)c(O)c1 [4-aminosalicylic acid] |  |  | PPB (fb): 0.62 |
| COc1cccc(-n2cc(C(=O)O)c(=O)c3cc(F)c(N4CCN(C)CC4)cc32)c1 [5ba(m-OCH3__N-CH3)] | 0.54 |  |  |
| CN1C(=O)C(O)N=C(c2ccccc2Cl)c2cc(Cl)ccc21 (stereo not drawn) [Lormetazepam] |  |  | PPB (fb) (plasma): 0.86 |
| CCC(CC)OCC(=O)NC1C(=O)N2C1SC(C)(C)C2C(=O)O (stereo not drawn) [penicillin8] |  | 0.47 |  |
| COC1=CC(=O)C[C@@H](C)[C@]12Oc1c(Cl)c(OC)cc(OC)c1C2=O [griseofulvin] |  | 0.8 |  |
| CN1C(=O)CN=C(C2=CCCCC2)c2cc(Cl)ccc21 [tetrazepam] |  |  | PPB (fb) (plasma): 0.7 |
| CN1CCC(=C2c3ccccc3CCc3cccnc32)CC1 [azatadine] | 0.1 |  |  |
| O=c1c(O)c(-c2ccc(O)c(O)c2)oc2cc(O)cc(O)c12 [Quercetin] |  |  | PPB (fb) [1]: 0.99 |

| Compound | PPB (fb) [2] | PPB (fb) [3] | further results |
| --- | --- | --- | --- |
| CCC(C)C1(CC)C(=O)NC(=O)NC1=O (stereo not drawn) [secbutabarbital] |  |  | PPB (fb) (plasma): 0.26 |
| CC(=O)OC1CC(OC2C(O)CC(OC3C(O)CC(OC4CCC5(C)C(CCC6C5CCC5(C)C(C7=CC(=O)OC7)CCC65O)C4)OC3C)OC2C)OC(C)C1O (stereo not drawn) [acetyldigitoxin] |  |  | PPB (fb) (plasma): 0.8 |
| COc1ccc([C@@H]2Sc3ccccc3N(CCN(C)C)C(=O)[C@@H]2OC(C)=O)cc1 [Diltiazem] |  |  | PPB (fb) [1]: 0.81 |
| CCN(CC)Cc1cc(Nc2ccnc3cc(Cl)ccc23)ccc1O [amodiaquine] | 0.9 |  |  |
| O=C1NC(c2ccccc2)(c2ccccc2)C(=O)N1COP(=O)(O)O [fosphenytoin] |  | 0.95 |  |
| CCC(Oc1ccccc1)C(=O)NC1C(=O)N2C1SC(C)(C)C2C(=O)O (stereo not drawn) [penicillin50] | 0.86 |  |  |
| CC(C)[C@H]1CC[C@H](C(=O)N[C@H](Cc2ccccc2)C(=O)O)CC1 [Nateglinide] |  |  | PPB (fb) [1]: 0.98 |
| CCN(CC)CCNC(=O)c1cc(S(C)(=O)=O)ccc1OC [tiapride] |  | 0 |  |
| Cn1c(=O)c2c(ncn2CCCNCC(O)c2cc(O)cc(O)c2)n(C)c1=O (stereo not drawn) [reproterol] | 0.5 |  |  |
| Cc1cc(=O)n(-c2ccccc2)n1C [Antipyrine] |  |  | PPB (fb) (plasma): 0.07 |
| CCOc1c(C)nc2ccccc2c1C(=O)NC1C(=O)N2C1SC(C)(C)C2C(=O)O (stereo not drawn) [penicillin79] |  | 0.74 |  |
| O=C(O)c1cc(=O)c2c(OCC(O)COc3cccc4oc(C(=O)O)cc(=O)c34)cccc2o1 [cromolyn] | 0.68 |  |  |
| CC(=O)C1CCC2C3CC=C4CC(O)CCC4(C)C3CCC12C (stereo not drawn) [Pregnenolone] |  | 0.8 |  |
| O=C(O)C1=C(CSc2nnnn2CS(=O)(=O)O)CS[C@@H]2[C@H](NC(=O)[C@H](O)c3ccccc3)C(=O)N12 [cefonicid] | 0.98 |  |  |
| C=C1CC[C@@]2(O)[C@H]3Cc4ccc(O)c5c4[C@@]2(CCN3CC2CC2)[C@H]1O5 [Nalmefene] |  |  | PPB (fb) [1]: 0.36 |
| CN1C(C(=O)Nc2ccccn2)=C(O)c2ccccc2S1(=O)=O [piroxicam] |  | 0.99 |  |
| Nc1n[n+]([O-])c2ccccc2[n+]1[O-] [Tirapazamine] |  | 0.19 |  |
| CC(C)NCC(O)c1ccc(NS(C)(=O)=O)cc1 (stereo not drawn) [Sotalol] |  | 0.28 |  |
| lanatoside-C |  | 0.25 |  |
| C=C1C[C@@H]2[C@H](CC[C@]3(C)C(=O)CC[C@@H]23)[C@@]2(C)C=CC(=O)C=C12 [exemestane] |  | 0.9 |  |
| CC(C(=O)O)c1cccc(Oc2ccccc2)c1 (stereo not drawn) [fenoprofen] |  | 0.99 |  |
| CN(C)CC/C=C1\c2ccccc2CSc2ccccc21 [dothiepin] |  | 0.85 |  |
| Cc1nnc(SCC2=C(C(=O)O)N3C(=O)[C@@H](NC(=O)Cn4cnnn4)[C@H]3SC2)s1 [Cefazolin] | 0.83 |  |  |
| CC1(C)SC2C(NC(=O)c3cccc4ccccc34)C(=O)N2C1C(=O)O (stereo not drawn) [penicillin64] | 0.86 |  |  |
| Cc1[nH]c(=O)c(C#N)cc1-c1ccncc1 [Milrinone] |  |  | PPB (fb) [1]: 0.85 |
